Experimental data published in patent US8163901B2, “Amide derivatives as ion-channel ligands and pharmaceutical compositions and methods of using the same” (Evotec AG, priority 2008, dated 2012).

Tests used:
Format in all cases: cell-based
hVR1 [1] = target: T1, hVR1 (Homo sapiens, UniProt Q8NER1); assay: Determination of pA2 values against capsaicin stimulation (Ca2+ imaging, Schild analysis)
T1 construct: R710-07 (T-REx host cell line); host or cells: T-REx System cell line, called 'human keratinocyte cell line' and 'HEK 293 cells'
Protocol: Changes in the fluorescence signal (λex=470-495 nm, λem=515-575 nm) are monitored throughout the experiment before agonist addition and for at least 2 min after agonist addition (enough time for the fluorescence response to reach and then decline from the absolute maximum, agonist-induced signal attained). For each well, final relative fluorescence units (RFUs) are calculated as the difference between the maximum fluorescence signal obtained in the experiment after agonist addition and the signal level seen at baseline before agonist, but after antagonist, addition (the absolute minimum level of fluorescence signal observed in the 10 seconds prior to agonist addition). […] Data are fit to an ideal curve utilizing the 4-parameter sigmoid curve-fit function in GraphPad Prism software (version 4, GraphPad Software, Inc., San Diego, Calif., USA) from which an EC50 value is obtained. […] For each antagonist, at least three concentrations are tested. Dose Ratio values are then used to make a standard Schild plot—log [antagonist concentration] plotted against log [DR−1], see Kenakin reference above for theoretical background and method. A linear regression curve-fit is then performed on these plotted points. […] If these conditions are not met, then the antagonist is rerun in a pA2 assay using different antagonist concentrations until the above conditions are met.

hVR1 [2] = target: T1, hVR1; assay: Calcium uptake assay (FLIPR), inhibition of capsaicin-induced calcium influx
Protocol: (§1) Functional activity of compounds against the VR1 receptor was determined by measuring changes in intracellular calcium in HEK 293 cells expressing hVR1. Compounds were examined for their ability to inhibit agonist-induced calcium influx. Relative levels of [Ca^2+] were monitored in a 96-well format using a calcium-sensitive fluorescence dye and a FLIPR TETRA, Molecular Devices.
(§2) Cells that express high levels of VR1 were obtained by generation of a cell line from human keratinocytes with heterologous expression of VR1 under control of an inducible promoter. Specifically, cells expressing human VR1 under the control of the human cytomegalovirus immediate-early (CMV) promoter and two tetracycline operator 2 (TetO2) sites were made using the T-REx System (Invitrogen, Carlsbad, Calif., USA). Details and methods concerning this system are published (Hum. Gene Ther. 9, pp. 1939-1950, 1998; Annu. Rev. Microbiol. 48, pp. 345-369, 1994; Mol. Biol. 169, pp. 707-'721, 1983). Human VR1 was subcloned into the T-REx System pcDNA5/TO vector (Invitrogen Cat# V1033-20) which was transfected into the T-REx System human keratinocyte cell line (Invitrogen Cat# R710-07) from which a stable cell line was established which expresses VR1 after induction by exposure to tetracycline or doxycycline (Hum. Gene Ther. 9, pp. 1939-1950, 1998; instructions that come with purchase of products noted above). Cells were maintained in a CO2 incubator (5% CO2) at 37° C. in culture medium containing DMEM with phenol red (Mediatech Cat #: 15-017-CV) supplemented with 10% heat-inactivated Fetal Bovine Serum, 5% Penicillin-streptomycin (Mediatech Cat #: 30-002-CI), 5% Glutamax® (L-Alanyl-L-Glutamine, Mediatech Cat #: 25-015-CI), 200 μg/ml hygromycin (Mediatech #:30-240-CR), 0.5 μg/ml blasticidin (Invitrogen #46-1120)).
(§3) For assay preparation, cells expressing human VR1 as described above were plated in 96-well plates (Becton Dickinson [BD] poly-D-lysine coated 96-well plates, cat #356692) at 55,000 cells per well in culture media (described above) that also contained 1 ug/ml doxycycline. Plated cells were then placed in an incubator (5% CO2) and incubated for 20-26 hours at 37° C., until the cells had grown to near confluency. Media was then aspirated from cells and 50 uL of dye-containing buffer (from Molecular Devices FLIPR Calcium 4 Assay kit, cat# R8141) was added to each well. Cells were then left in the dark at room temperature for 1.5-2 hours. Cell plates were then placed in the FLIPR TETRA (Molecular Devices, CA, USA). Test compounds and agonists were added to wells using the liquid handling capability of the FLIPR TETRA. Calcium responses of the cells were monitored by fluorescence readout of dye signal. Test compounds in saline (130 mM NaCl, 17 g/L sucrose, 1.8 g/L glucose, 8.8 mM HEPES, 3 mM KCl, 0.60 mM MgCl, 1.0 mM CaCl2; adjust to pH 7.4 using NaOH; 0.03% BSA added on the day of the experiment), or vehicle control in saline, were pre-incubated at the desired final concentrations in the dark at room temperature for 2 or 30 minutes with cells already containing the above mentioned dye buffer (dye solution was diluted 1:1 in culture wells with saline containing 2× the final concentration of test compound). […] Another agonist was protons via a low pH solution (saline solution described above plus 10 mM citric acid buffered to pH 5.7 with HCl instead of buffering to a neutral pH with NaOH as done for normal saline). Compounds were tested at various concentration ranges, depending upon potency of compound. After the 2 minute or 30 minute compound pre-treatment, treatment solution was then added to cells by adding a volume of treatment solution equal to the pretreatment solution already on the cells.

hVR1 [3] = target: T1, hVR1; assay: Calcium uptake assay (FLIPR), inhibition of low pH (proton)-induced calcium influx; conditions: agonist protons, low pH solution pH 5.7; cells expressing hVR1
Protocol: as §1, §2
as §3, with “compound). Compound IC50 experiments were run using an agonist concentration at or near the EC50 of the agonist.” for “compound).”, “cells. […]” for “cells.”

T1 sequence (Q8NER1 whole entry): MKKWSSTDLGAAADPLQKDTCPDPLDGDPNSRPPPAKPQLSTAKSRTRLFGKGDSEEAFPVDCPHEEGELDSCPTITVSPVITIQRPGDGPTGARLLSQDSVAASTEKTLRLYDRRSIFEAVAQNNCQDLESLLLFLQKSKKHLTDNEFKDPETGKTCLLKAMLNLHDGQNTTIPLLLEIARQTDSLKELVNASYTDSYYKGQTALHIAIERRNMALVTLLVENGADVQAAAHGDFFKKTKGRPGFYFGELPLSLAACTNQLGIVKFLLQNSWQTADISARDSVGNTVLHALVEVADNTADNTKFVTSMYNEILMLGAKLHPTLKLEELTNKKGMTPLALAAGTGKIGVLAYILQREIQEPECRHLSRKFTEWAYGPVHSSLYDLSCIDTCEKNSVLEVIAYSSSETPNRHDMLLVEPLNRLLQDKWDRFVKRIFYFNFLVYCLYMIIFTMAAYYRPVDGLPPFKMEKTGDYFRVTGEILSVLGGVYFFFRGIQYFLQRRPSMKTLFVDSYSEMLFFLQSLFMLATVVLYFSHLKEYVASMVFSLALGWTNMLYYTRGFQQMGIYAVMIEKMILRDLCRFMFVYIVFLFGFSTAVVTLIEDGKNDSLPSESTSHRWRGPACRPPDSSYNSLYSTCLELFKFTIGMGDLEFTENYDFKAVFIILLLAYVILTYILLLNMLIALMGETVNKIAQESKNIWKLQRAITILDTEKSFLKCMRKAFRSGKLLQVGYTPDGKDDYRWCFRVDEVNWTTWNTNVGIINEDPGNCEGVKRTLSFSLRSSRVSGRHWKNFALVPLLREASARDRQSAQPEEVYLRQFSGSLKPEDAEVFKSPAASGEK

Kb (hVR1 [1]) [nM]	IC50 (hVR1 [2]) [nM]	IC50 (hVR1 [3]) [nM]	inhibition at 1 µM (hVR1 [2]) [%]	SMILES
37.4	64	–	–	CC(NC(=O)[C@H]1COc2cc(C(F)(F)F)ccc2O1)c1ccc2[nH]ncc2c1 (stereo partly drawn) [Compound 13, (R)-6-Trifluoromethyl-2,3-dihydro-benzo[1,4]dioxine-2-carboxylic acid [1-(1H-indazol-5-yl)-ethyl]-amide]
–	103	–	–	CC(NC(=O)[C@@H]1COc2cc(C(C)(C)C)ccc2O1)c1ccc2[nH]ncc2c1 (single isomer, unassigned) [Compound 6]
14.5	–	8	–	CC(C)(C)c1ccc2c(c1)OC(C(=O)Nc1cnc3sc(CO)nc3c1)CO2 (centres unmarked) [Compound 8, 7-tert-Butyl-2,3-dihydro-benzo[1,4]dioxine-2-carboxylic acid (2-hydroxymethyl-thiazolo[5,4-b]pyridin-6-yl)-amide]
22.5	93	–	–	C[C@@H](NC(=O)[C@H]1COc2cc(C(F)(F)F)ccc2O1)c1ccc2[nH]ncc2c1 [Compound 26, (R)-6-Trifluoromethyl-2,3-dihydro-benzo[1,4]dioxine-2-carboxylic acid [(R)-1-(1H-indazol-5-yl)-ethyl]-amide]
22.9	33	40	–	CC(C)(c1ccc2c(n1)CC[C@@H](C(=O)Nc1cnc3ccccc3c1)C2)C(F)(F)F [Compound 21, (R)-2-(2,2,2-Trifluoro-1,1-dimethyl-ethyl)-5,6,7,8-tetrahydro-quinoline-6-carboxylic acid quinolin-3-ylamide]
–	–	108	–	O=C(NCc1ccnc2ccccc12)C1=Cc2cc(OC(F)(F)F)ccc2OC1 [Compound 4, 6-Trifluoromethoxy-2H-chromene-3-carboxylic acid (quinolin-4-ylmethyl)-amide]
–	–	128	–	O=C(NCc1ccnc2ccccc12)C1=Cc2cc(Br)ccc2OC1 [Compound 3, 6-Bromo-2H-chromene-3-carboxylic acid (quinolin-4-ylmethyl)-amide]
–	–	143	–	O=C(NCc1ccnc2ccccc12)C1=Cc2cc(Cl)ccc2OC1 [Compound 2, 6-Chloro-2H-chromene-3-carboxylic acid (Quinolin-4-ylmethyl)-amide]
–	310	–	–	C[C@@H](NC(=O)[C@@H]1CCc2nc(C(C)(C)C(F)(F)F)ccc2C1)c1cnn2c1OCCC2 [Compound 20, (R)-2-(2,2,2-Trifluoro-1,1-dimethyl-ethyl)-5,6,7,8-tetrahydro-quinoline-6-carboxylic acid [(R)-1-(6,7-dihydro-5H-pyrazolo[5,1-b][1,3]oxazin-3-yl)-ethyl]-amide]
4.32	8	–	–	CC(NC(=O)C1CCc2nc(C(C)(C)C(F)(F)F)ccc2C1)c1ccc2[nH]ncc2c1 (centres unmarked) [Compound 10, 2-(2,2,2-Trifluoro-1,1-dimethyl-ethyl)-5,6,7,8-tetrahydro-quinoline-6-carboxylic acid [1-(1H-indazol-5-yl)-ethyl]-amide]
–	36	240	–	CC(C)(C)c1ccc2c(c1)OCC(C(=O)NCc1ccnc3ccccc13)O2 (centres unmarked) [Compound 1, 6-tert-butyl-N-(quinolin-4-ylmethyl)-2,3-dihydrobenzo[b][1,4]dioxine-2-carboxamide]
422	–	571	–	O=C(Nc1cnc2sc(CO)nc2c1)[C@H]1COc2cc(C(F)(F)F)ccc2O1 [Compound 16, (R)-6-Trifluoromethyl-2,3-dihydro-benzo[1,4]dioxine-2-carboxylic acid (2-hydroxymethyl-thiazolo[5,4-b]pyridin-6-yl)-amide]
–	820	–	54	CC(NC(=O)[C@@H]1COc2cc(C(F)(F)F)ccc2O1)c1ccc2[nH]ncc2c1 (stereo partly drawn) [Compound 14, (S)-6-Trifluoromethyl-2,3-dihydro-benzo[1,4]dioxine-2-carboxylic acid [1-(1H-indazol-5-yl)-ethyl]-amide]
69.2	–	121	–	CC1(C(=O)Nc2cnc3sc(CO)nc3c2)CCc2nc(C(C)(C)C(F)(F)F)ccc2C1 (centres unmarked) [Compound 24, 6-Methyl-2-(2,2,2-trifluoro-1,1-dimethyl-ethyl)-5,6,7,8-tetrahydro-quinoline-6-carboxylic acid (2-hydroxymethyl-thiazolo[5,4-b]pyridin-6-yl)-amide]
188	150	–	–	C[C@@H](NC(=O)[C@@H]1COc2cc(C(F)(F)F)ccc2O1)c1ccc2[nH]ncc2c1 [Compound 25, (S)-6-Trifluoromethyl-2,3-dihydro-benzo[1,4]dioxine-2-carboxylic acid 1[(R)-1-(1H-indazol-5-yl)-ethyl]-amide]
–	140	–	–	O=C(Nc1cnc2c(c1)COCC2)[C@H]1COc2cc(C(F)(F)F)ccc2O1 [Compound 17, (R)-6-Trifluoromethyl-2,3-dihydro-benzo[1,4]dioxine-2-carboxylic acid (7,8-dihydro-5H-pyrano[4,3-b]pyridin-3-yl)-amide]
59.5	76	–	–	C[C@@H](NC(=O)[C@H]1CCc2nc(C(C)(C)C(F)(F)F)ccc2C1)c1cnn2c1OCCC2 [Compound 22, (S)—N—((R)-1-(6,7-dihydro-5H-pyrazolo[5,1-b][1,3]oxazin-3-yl)ethyl)-2-(1,1,1-trifluoro-2-methylpropan-2-yl)-5,6,7,8-tetrahydroquinoline-6-carboxamide]
